Experimental findings from ChEMBL document CHEMBL3988442, “University of Dundee, Small-Polar-MMV Screening Library” (2021) are described below.

Assay [1] addresses Sialic acid-binding Ig-like lectin 9 (Homo sapiens, UniProt Q9Y336). Nature of the assay: Hs-Siglec9 ALPHAscreen SOP 20170721.
Assay [2] can be described thus: In vitro enzyme assay to detect hydrolysis of chlorophenol red-beta-D-[…] directly proportional to the number of Toxoplasma stably expressing beta-galactosidase. The assay is classed as functional, organism-based, Toxoplasma gondii. Particulars: for IC50: Toxoplasma gondii.
The next assay addresses ClpP1P2 (Mycobacterium tuberculosis (strain ATCC 25618 / H37Rv), UniProt P9WPC3+P9WPC5). Nature of the assay: in vitro assay to detect presence of AMC directly proportional to the activity of ClpP1P2. GHDDI collaboration. Format: functional.
Assay [3] in a line: microbe, parasite or virus in culture. Particulars: Mycobacterium tuberculosis, 72 h, read-out: pIC50 (converted).
Assay [4] can be described thus: microbe, parasite or virus in culture. To be noted: Mycobacterium tuberculosis, 96 h, read-out: pIC50 (converted).
The next assay concerns Plasmodium falciparum. Nature of the assay: Calibr Malaria Delayed Death Assay SOP. Format: functional, organism-based. To be noted: for IC50: Plasmodium falciparum.

On to `COc1c(C(=O)NCc2cccnc2)nnn1Cc1ccccc1`, for which the IC50 in assay [1] is above 30.2 µM; in assay [2], above 50.1 µM.
In the case of `FC(F)(F)c1cc(C2CCN(c3cnccn3)CC2)n2ccnc2n1`, the IC50 is above 30.2 µM in assay [1] and above 100 µM at ClpP1P2.
For the compound `COc1cc(C)sc1C(=O)N1CCC(Nc2cccnc2)CC1`, the figures for the IC50 in assay [3], in assay [1] and in assay [4] were above 50.1 µM, above 30.2 µM and above 50.1 µM, respectively.
As for `Cn1ncc2c1C(COCC1CC1)CN(Cc1ccsc1)C2` (centres undefined), the IC50 was above 30.2 µM in assay [1] and above 50.1 µM in assay [4].
Take `COc1c(C(=O)NCC2CCCO2)nnn1Cc1ccccc1` (centres undefined): the IC50 in assay [1] was above 30.2 µM; in assay [2] it was above 50.1 µM.
Take `CC(C)N1CCCC(c2cc(C(F)(F)F)nc3nccn23)C1` (centres undefined): the figures for the IC50 (in assay [1]; on ClpP1P2) were above 30.2 µM and above 100 µM, respectively.
On the same counts, the results for `FC(F)(F)c1cc(C2CCCN(c3cnccn3)C2)n2ccnc2n1` (centres undefined) are above 30.2 µM and above 100 µM.
In turn, `COc1ccc(C(C)NCc2ccsc2)cc1Cn1cccn1` (centres undefined) showed an IC50 in assay [1] above 30.2 µM. In the assay on Plasmodium falciparum, this compound had a pIC50 of 6.257 and an IC50 of 0.477 µM.
On the same counts, the results for `CN1CC2(CCN(Cc3ccoc3)CC2)COc2ccccc2S1(=O)=O.O=C(O)C(F)(F)F` are above 30.2 µM, 5.92 and 0.906 µM.
In the case of `COc1c(C(=O)NCC(C)C)nnn1Cc1ccccc1`, the figures for the IC50 in assay [1] and in assay [2] were above 30.2 µM and above 50.1 µM, respectively.
With `O=C(NCCc1nncn1C1CC1)c1cc2ccccn2c1`, the figures for the IC50 (in assay [1]; on ClpP1P2) were above 30.2 µM and above 100 µM, respectively.
In assay [1], `Cc1ccsc1CN1C[C@@H]2COC[C@]2(COCC(=O)N(C)C)C1` gave an IC50 above 30.2 µM.
Turning to `Cc1nc(COC[C@]23COC[C@H]2CN(Cc2ccoc2)C3)cs1`, the IC50 in assay [1] was above 30.2 µM.
The same measure, in the same setting: under `CCC(=O)N1CCC2(CC1)COc1ccccc1S(=O)(=O)N(C)C2` stands above 30.2 µM.
On the same count and under the same terms, with `Cc1cc(S(=O)(=O)N(CCO)C2CC2)ccc1F` the figure was above 30.2 µM.
On the same count and under the same terms, with `CCn1ncc2c1C(COC)CN(Cc1cccnc1)C2` (centres undefined) the figure was above 30.2 µM; with `CC(C)n1cnnc1C1CCCN(S(=O)(=O)CCCF)C1` (centres undefined), above 30.2 µM.
As for `Cc1ncsc1CCC(=O)NCc1csc(N2CCCC2)n1`, in assay [1], the IC50 is above 30.2 µM.
Still for that read-out and setting: under `CC(=O)NCC(=O)N1Cc2cc(C#N)ccc2C1c1cnco1` (centres undefined) stands above 30.2 µM; under `CC(C)CCN1CCC2(CC1)NCc1ccccc1NC2=O`, above 30.2 µM.
As for `CCOCCCNC(=O)c1nnn(Cc2ccccc2)c1OC`, the IC50 in assay [1] was above 30.2 µM; in assay [2], above 50.1 µM.
In assay [1], `COC(=O)C(O)C1CCN(Cc2cccc(-n3cccn3)c2)CC1` (centres undefined) had an IC50 above 30.2 µM.
Same read-out and setting: under `CCOCC1CN(Cc2ccsc2)Cc2cnn(C)c21` (centres undefined) stands above 30.2 µM; under `O=C1Nc2ccccc2CN(CC2CC2)C12CCNC2` (centres undefined), above 30.2 µM.
Take `Cc1nccc(N2C[C@@H](CN3CCCC3)[C@@H](CO)C2)n1`: in assay [1], the IC50 is above 30.2 µM.
In turn, `CC(=O)NCCCSC1CCN(c2ccccc2Cl)C1=O` (centres undefined) had an IC50 in assay [1] above 30.2 µM.
On the same count and under the same terms, with `COc1c(C(=O)NCc2cccnc2)nnn1Cc1ccc(C)cc1` the figure was above 30.2 µM; with `COCCNC(=O)c1nnn(Cc2ccccc2)c1OC`, above 30.2 µM.
With `Cc1cc(S(=O)(=O)NC(C)(C)CN)c(F)cc1F`, in assay [1], the IC50 was above 30.2 µM.
Same read-out and setting: under `CN1CC2(CCN(CC3CC3)CC2)COc2ccccc2S1(=O)=O` stands above 30.2 µM.
Still for that read-out and setting: with `O=C(NCCc1nncn1C1CC1)C1SCCc2ccccc21` (centres undefined) the figure was above 30.2 µM; with `CC(C)NC(=O)N1CCC2(CC1)COc1ccccc1S(=O)(=O)N(C)C2`, above 30.2 µM.
Same read-out and setting: under `COC(=O)C(O)C1CCN(CCc2ccncc2)CC1` (centres undefined) stands above 30.2 µM; under `CCn1ncc2c1C(COC)CN(Cc1ccc(C)o1)C2` (centres undefined), above 30.2 µM; under `CC(=O)N[C@@H]1CN(c2nc(C(N)=O)cs2)C[C@H]1c1ccc(C)o1`, above 30.2 µM.
Consider `Cc1ccnc(N2CCCC(c3nncn3C3CC3)C2)n1` (centres undefined), for which the IC50 in assay [1] was above 30.2 µM.
The same measure, in the same setting: under `Cc1cc(S(=O)(=O)NCC(C)(O)CN(C)C)c(F)cc1F` (centres undefined) stands above 30.2 µM; under `COC(=O)C(O)C1CCN(CCc2ccc(C)cc2)CC1` (centres undefined), above 30.2 µM.
Same read-out and setting: with `CN(C)C(=O)COC[C@]12COC[C@H]1CN(Cc1ccco1)C2` the figure was above 30.2 µM.
Turning to `CCn1ncc2c1C(COC)CN(Cc1ccsc1)C2` (centres undefined), the IC50 in assay [1] is above 30.2 µM.
On the same count and under the same terms, with `Cc1nn(C)c(C)c1CCC(=O)NCc1csc(N2CCCC2)n1` the figure was above 30.2 µM; with `COc1ccc(C(C)NCc2cccs2)cc1Cn1cccn1` (centres undefined), above 30.2 µM; with `CCc1cc(N2CCN3CCCCC3C2)n2nccc2n1` (centres undefined), above 30.2 µM.
In turn, `CC(C)n1cnnc1C1CCCN(S(=O)(=O)CC2CCCC2)C1` (centres undefined) gave an IC50 in assay [1] above 30.2 µM.
Still for that read-out and setting: under `c1cnc(N2CCCC3(CCN(CC4CCOC4)CC3)C2)nc1` (centres undefined) stands above 30.2 µM.
On the same count and under the same terms, under `Cc1occc1C(=O)N1CCO[C@H]2[C@@H](Oc3ccccn3)CC[C@@H]21` stands above 30.2 µM; under `CCOC(=O)[C@@H]1[C@@H](OC)C(=O)N(C)C12CCN(C(=O)C(CC)CC)CC2`, above 30.2 µM; under `CCn1ncc2c1C(COC)CN(Cc1cnn(C)c1)C2` (centres undefined), above 30.2 µM.
In assay [1], `CCOC(=O)[C@@H]1[C@@H](O)C(=O)N(C)C12CCN(C(=O)OC)CC2` showed an IC50 above 30.2 µM.
With `Cc1cc(CN2C[C@@H]3COC[C@]3(COCC(=O)N(C)C)C2)no1`, the IC50 in assay [1] is above 30.2 µM.
Still for that read-out and setting: with `O=C(NCCc1nncn1C1CC1)c1cnn(Cc2ccccc2)c1` the figure was above 30.2 µM; with `Cc1occc1C(=O)N1CCCS1(=O)=O`, above 30.2 µM.
Still for that read-out and setting: under `CC(C)CCNc1nc(C(=O)NC2CC2)cs1` stands above 30.2 µM.
For `O=C1Nc2ccccc2CN(CC2CCCC2)C12CCNC2` (centres undefined), the IC50 is 22.7 µM in assay [3], above 30.2 µM in assay [1] and above 50.1 µM in assay [4].
Regarding `CCN(CC)C(=O)c1nnn(Cc2ccccc2)c1OC`, the IC50 in assay [1] is above 30.2 µM.
Consider `CCn1nc(C)c(NC(=O)c2nnn(Cc3ccccc3)c2OC)c1C`, for which the IC50 in assay [1] was above 30.2 µM; in assay [2], above 50.1 µM.
Take `CCc1cc(C(=O)N2CCCC(c3cc(=O)nc4n3CCC4)C2)no1` (centres undefined): the IC50 in assay [1] was above 30.2 µM.
In assay [1], `CCOC(=O)[C@H]1[C@@H](O)C(=O)N(C)C12CCN(C(=O)C(CC)CC)CC2` showed an IC50 above 30.2 µM.
On the same count and under the same terms, with `CC(C)n1cnnc1C1CCCN(C(=O)COCc2ccccc2)C1` (centres undefined) the figure was above 30.2 µM.
Regarding `COc1c(C(=O)NCc2cnn(C)c2C)nnn1Cc1ccccc1`, the figures for the IC50 in assay [1] and in assay [2] were above 30.2 µM and above 50.1 µM, respectively.
Turning to `CCn1cnnc1C1CCN(C(=O)c2cc(C)n(CC)c2C)CC1`, the IC50 in assay [1] was above 30.2 µM.
Same read-out and setting: with `c1cnc(N2CCC3(CCN(CC4CCOCC4)CC3)C2)nc1` the figure was above 30.2 µM; with `CC(C)CCS(=O)(=O)N1CCCC(c2nncn2C(C)C)C1` (centres undefined), above 30.2 µM.
The same measure, in the same setting: with `O=c1[nH]nc(-c2cccs2)c2sc(N3CCOCC3)nc12` the figure was above 30.2 µM; with `O=C(NCc1nc2ccccc2[nH]1)c1cc2n(n1)CCCO2`, above 30.2 µM.
Still for that read-out and setting: with `CN(C)C(=O)CN1CCC2(CC1)COc1ccccc1S(=O)(=O)N(C)C2` the figure was above 30.2 µM; with `Cc1occc1C(=O)N1C[C@H](Oc2ccccn2)[C@H]2OCCC[C@H]21`, above 30.2 µM; with `Cc1cc(N2CCCC(c3nncn3C3CC3)C2)ncn1` (centres undefined), above 30.2 µM.
With `O=C(NCC1(O)CCC1)c1cccc(-n2cccn2)c1`, the IC50 in assay [1] was above 30.2 µM.
In turn, `COc1ccc(C(C)NCc2scnc2C)cc1Cn1cccn1` (centres undefined) had an IC50 in assay [1] above 30.2 µM.
Still for that read-out and setting: with `CC(C)n1cnnc1C1CCCN(S(=O)(=O)c2c[nH]cn2)C1` (centres undefined) the figure was above 30.2 µM; with `CCOc1cccc(C2CC(=O)NCc3nc(N4CCCC4)sc32)c1` (centres undefined), above 30.2 µM.
The same measure, in the same setting: with `CC(C)NC(=O)C1CCN(c2nc3nc[nH]c(=O)c3s2)CC1` the figure was above 30.2 µM; with `COCc1cc(N2CCN(C3CCCCC3)CC2)n2nccc2n1`, above 30.2 µM.
In assay [1], `CNc1ncc(CN(C)C(=O)c2cccc(-n3cccn3)c2)cn1` gave an IC50 above 30.2 µM.
As to `O=C1Nc2ccccc2CN(C/C=C/c2ccccc2)C12CCNC2` (centres undefined), the IC50 in assay [1] was above 30.2 µM. Also, in assay [2], the pIC50 stood at 4.701 and the IC50 was 15 µM.
Regarding `CCc1nc(C2CCCN(c3nccc(C)n3)C2)no1` (centres undefined), the IC50 in assay [1] was above 30.2 µM.
For `CCOC(=O)[C@H]1[C@@H](O)C(=O)N(C)C12CCN(C(=O)CC1CCCC1)CC2`, in assay [1], the IC50 was above 30.2 µM.
The same measure, in the same setting: under `CC(C)NC(=O)c1csc(NC2CC2)n1` stands above 30.2 µM; under `CCn1ncnc1C1CC(=O)NCc2nc(N3CCOCC3)sc21` (centres undefined), above 30.2 µM.
The same measure, in the same setting: with `CCc1nc(C2CCCN(c3ncccn3)C2)no1` (centres undefined) the figure was above 30.2 µM; with `CCc1cc(N2CCCC(c3noc(CC)n3)C2)ncn1` (centres undefined), above 30.2 µM.
On the same count and under the same terms, under `O=C1Nc2ccccc2CNC12CCN(CC1CC1)CC2` stands above 30.2 µM; under `Cc1ccnc(NC(=O)c2c(C)oc(C)c2C)c1`, above 30.2 µM.
In assay [1], `Cc1occc1C(=O)N1CCO[C@H]2[C@H](OCc3ccccn3)CC[C@@H]21` showed an IC50 above 30.2 µM.
On the same count and under the same terms, under `Cc1ccnc(NC(=O)c2cc(C)oc2C)c1` stands above 30.2 µM; under `COC(=O)CC1CCN(C(=O)c2ccc(C)cc2)CC1`, above 30.2 µM.
`c1cnc(N2CCC3(CCCN(CC4CC4)C3)CC2)nc1` gave an IC50 in assay [1] above 30.2 µM.
The same measure, in the same setting: under `CCNC(=O)c1cc2n(n1)CCCO2` stands above 30.2 µM; under `CC(C)n1cnnc1C1CCCN(S(=O)(=O)CCCC#N)C1` (centres undefined), above 30.2 µM.
In the case of `N#Cc1ccc2c(c1)CN(C(=O)C1CC=CC1)C2c1cnco1` (centres undefined), the IC50 in assay [1] was above 30.2 µM.
On the same count and under the same terms, under `CCn1ncc2c1C(COC)CN(Cc1ccc(F)cc1)C2` (centres undefined) stands above 30.2 µM.
The same measure, in the same setting: under `CCC(C(=O)NCc1csc(N2CCOCC2)n1)n1cccn1` (centres undefined) stands above 30.2 µM.

Broadly, the pIC50 is the IC50 on a negative log10 scale, so that one unit is a factor of ten.
